Reference: patent US20020115728A1, “Compositions and methods for treating cardiovascular disorders” (priority 2000, published 2002)

Key:
[1] = tested on: apoE−/−;LDLr−/− mouse aortae; assay: Aqueous and lipophilic parameters of aortic homogenates; format: in vivo, mice; settings: for Aortic Ascorbate: apoE−/−;LDLr−/− mice
Description: Mouse aortas were excised as follows: after bleeding, the heart was perfused with Dulbecco's phosphate-buffered saline containing 100 μM BHT and 1 mM EDTA (maximum pressure 80 mm Hg) through the left ventricle, the right side chamber being opened to allow flow. For histological samples only, the vasculature was subsequently fixed with formal saline. The hearts and entire aortas from all treatment groups were removed and immediately cleaned of fat and connective tissue. Aortas for biochemical analyses were frozen immediately ([…]) without formalin fixation.
Cleaned aortic segments were thawed, blotted, pooled (n=7 or 8), weighed, added to 2 mL of argon-flushed phosphate-buffered saline (to give ˜40 mg wet tissue/mL) containing BHT (100 μM) and EDTA (1 mM). The tissue was minced with scissors, isoascorbate (5 μM) and α-tocotrienol (1 μM) added as internal standards for ascorbate and vitamin E (including α-TQ), respectively, and the samples transferred to a polytetrafluoroethylene-lined glass tube and homogenised at 4° C. for 5 minutes using a teflon piston rotating at 500 r.p.m. For recovery of oxidised lipids, [^3H]-Ch18:2-OH was incorporated into human LDL and added to the vessel prior to homogenisation. […] For ascorbate measurement, raw homogenate (50 μL) was added to metaphosphoric acid (5% v/v, 50 μL) and frozen on dry ice. Immediately before HPLC analysis, the aliquots were thawed and diluted with phosphate buffer (50 μL, 250 mM, pH 7.4), to adjust the pH. For the analyses of lipids, the remaining homogenate (˜1.8 mL) was divided into 4×450 μl aliquots and each extracted with chilled methanol (2 mL) and hexane (10 mL). Hexane phases were combined and evaporated to dryness and the residue resuspended in isopropanol (200 μL).
Analyses of oxidised and non-oxidised lipids were carried out by RP-HPLC as described in Example 1 except that in some instances UV234 nm rather than post-column chemiluminescence detection was used to measure C18:2-OOH and the corresponding hydroxides (together referred to as CE-O(O)H) which show similar retention times under these chromatographic conditions. α-TQ, α-TOH, α-tocotrienol, D-isosascorbate and ascorbate were determined by HPLC with electrochemical detection. For oxidation of plasma, unesterified cholesterol (which remained non-oxidised in these experiments) was employed as internal standard for all polyunsaturated, lipid-soluble components analysed. Bisphenol and diphenoquinone were analysed by RP-HPLC: flow 1.5 mL/min, 100% solvent A (MeCN/MeOH/H20 10:10:3, v/v/v) for 0-15 min monitored at 270 nm, followed by 50% solvent A and B (MeCN/MeOH 1:1, v/v) for 15-22 min at 242 nm and then 100% B for 22-28 min at 420 nm. Bisphenol and diphenoquinone eluted at 9 and 27 min, respectively. All compounds were quantified by peak area comparison with authentic standards. Where indicated, total cholesterol and triglyceride were assayed enzymatically (Boehringer, Mannheim, Germany).
Unless otherwise stated lipid and antioxidant levels are expressed as pmol/mg protein. LH, lipid containing bisallylic hydrogens. §Values are expressed as nmol/mg protein. Protein ranged from 2.4 - 3.3 mg/mL. ¶Value given represents ratio ×10^3. †Mice were ranked in order of plasma concentration of bisphenol, then corresponding aortae were pooled into groups of 7 and 8 on the basis of plasma drug-levels giving two distinct groups. Low and high bisphenol correspond to 106±40 and 212±50 μM, respectively. Control aortas were pooled randomly into two groups of 7 and 8 respectively.

[2] = tested on: plasma lipoproteins of apoE−/− mice; assay: Lipids and antioxidants in lipoprotein fractions (size exclusion FPLC of pooled plasma); format: in vivo; parameters: VLDL C / VLDL C18:2 / VLDL -TOH / VLDL Total CoQ / LDL C / LDL C18:2 / LDL -TOH / LDL Total CoQ / HDL C / HDL C18:2 / HDL -TOH / HDL Total CoQ: unit not given here; settings: 24 weeks
Description: Plasma was obtained from control and probucol mice and aliquots frozen for subsequent determination of lipids. Separate aliquots were acidified with metaphosphoric acid (5%) to stabilize vitamin C prior to freezing and storage at −80° C. The remainder was pooled appropriately and used for ex vivo oxidation initiated by the peroxyl radical generator AAPH and lipoprotein separation by FPLC with UV280nm detection, as described in J Lipid Res. 1999;40:1104-1112.
Two consecutive separations each employing 300 μL undiluted plasma were carried out. The corresponding eluents from both injections were collected, pooled according to fractions corresponding to very low-density lipoprotein (VLDL), LDL, and HDL plus mouse serum albumin (see FIG. 3) and then extracted and analysed for lipids and antioxidants.

[3] = Probucol and metabolite levels in aorta and plasma; format: in vivo; settings: apoE−/− mice, 1% probucol, 24 weeks
Description: Male C57BL/6J mice, homozygous for the disrupted apoE gene (apoE−/−) were fed standard chow (Lab-Feed, Sydney, Australia) until aged 10 weeks.
Lipid-soluble antioxidants and lipids were quantified by HPLC as described in FASEB J. 1999;13:667-675. For ascorbate analysis, frozen acidified samples were thawed, diluted with DPBS to adjust the pH to 7.4 and then immediately subjected to HPLC. Plasma triglycerides were determined enzymatically (Boehringer, Mannheim, Germany).
Pooled aortas were snap frozen in liquid nitrogen, pulverised, resuspended in Buffer A, homogenised and then either treated with metaphosphoric acid (for ascorbate) or extracted and the hexane fraction analysed for lipid-soluble antioxidants, cholesterol (C), choleseteryl esters (CE), lipid hydroperoxides (LOOH) and cholesteryl ester hydroxides (CE-OH) by HPLC as described in Methods Enzymol. 1994;233:469-489. LOOH and CE-OH were measured as markers of lipoprotein lipid oxidation, as they are the primary and major oxidation products formed when lipoproteins from apoE−/− mice undergo oxidation. […] All compounds were quantified by peak area comparison with authentic standards, and protein determined.

Q: For CC(C)(C)c1cc(-c2cc(C(C)(C)C)c(O)c(C(C)(C)C)c2)cc(C(C)(C)C)c1O [Bisphenol, bisphenol], which “Aortic C” value ([1]; Bisphenol [high]) is on record?
A: 190 nmol/mg protein

Q: And the “Aortic C18:2” value ([1]; Bisphenol [high])?
A: 13.3 nmol/mg protein

Q: And the “Aortic C20:4” value ([1]; Bisphenol [high])?
A: 8.5 nmol/mg protein

Q: And the “Aortic CE-O(O)H” value ([1]; Bisphenol [high])?
A: 2.8 pmol/mg protein

Q: What about the “Aortic CE-O(O)H/LH” value ([1]; Bisphenol [high]) of the same molecule?
A: 0.002 ratio ×10^3

Q: And the “Aortic α-TOH” value ([1]; Bisphenol [high])?
A: 586 pmol/mg protein

Q: And the “Aortic α-TQ” value ([1]; Bisphenol [high])?
A: 3.5 pmol/mg protein

Q: What about the “Aortic Ascorbate” value ([1]; Bisphenol [high] (plasma 212±50 μM)) of the same molecule?
A: 2570 pmol/mg protein

Q: What about the “Aortic C” value ([1]; Bisphenol [low]) of the same molecule?
A: 204 nmol/mg protein

Q: What about the “Aortic C18:2” value ([1]; Bisphenol [low]) of the same molecule?
A: 21.0 nmol/mg protein

Q: And the “Aortic C20:4” value ([1]; Bisphenol [low])?
A: 12.7 nmol/mg protein

Q: And the “Aortic CE-O(O)H” value ([1]; Bisphenol [low])?
A: 14.1 pmol/mg protein

Q: And the “Aortic CE-O(O)H/LH” value ([1]; Bisphenol [low])?
A: 0.145 ratio ×10^3

Q: And the “Aortic α-TOH” value ([1]; Bisphenol [low])?
A: 669 pmol/mg protein

Q: And the “Aortic α-TQ” value ([1]; Bisphenol [low])?
A: 4.9 pmol/mg protein

Q: And the “Aortic Ascorbate” value ([1]; Bisphenol [low] (plasma 106±40 μM))?
A: 3204 pmol/mg protein

Q: What about the “level of aortic oxidised lipids lower than control” value ([1]; animals with high plasma levels of bisphenol) of the same molecule?
A: 1000 fold

Q: And the “level of aortic oxidised lipids lower than control” value ([1]; animals with low plasma levels of bisphenol)?
A: 10 fold

Q: Which “HDL -TOH” value ([2]; HDL fraction, 1% probucol) does the source give for CC(C)(Sc1cc(C(C)(C)C)c(O)c(C(C)(C)C)c1)Sc1cc(C(C)(C)C)c(O)c(C(C)(C)C)c1 [Probucol, probucol] here?
A: 1.4

Q: What about the “HDL C” value ([2]; HDL fraction, 1% probucol) of the same molecule?
A: 0.12

Q: What about the “HDL C18:2” value ([2]; HDL fraction, 1% probucol) of the same molecule?
A: 531

Q: And the “HDL C20:4” value ([2]; HDL fraction, 1% probucol)?
A: 24.0

Q: What about the “HDL Total CoQ” value ([2]; HDL fraction, 1% probucol) of the same molecule?
A: 0.1

Q: What about the “LDL -TOH” value ([2]; LDL fraction, 1% probucol) of the same molecule?
A: 7.8

Q: What about the “LDL C” value ([2]; LDL fraction, 1% probucol) of the same molecule?
A: 0.96

Q: And the “LDL C18:2” value ([2]; LDL fraction, 1% probucol)?
A: 388

Q: What about the “LDL C20:4” value ([2]; LDL fraction, 1% probucol) of the same molecule?
A: 50.4

Q: What about the “LDL Total CoQ” value ([2]; LDL fraction, 1% probucol) of the same molecule?
A: 0.4

Q: And the “VLDL -TOH” value ([2]; VLDL fraction, 1% probucol)?
A: 0.56

Q: And the “VLDL C18:2” value ([2]; VLDL fraction, 1% probucol)?
A: 340

Q: And the “VLDL C20:4” value ([2]; VLDL fraction, 1% probucol)?
A: 17.5

Q: What about the “VLDL Total CoQ” value ([2]; VLDL fraction, 1% probucol) of the same molecule?
A: 0.1

Q: What about the “VLDL C” value ([2]; VLDL fraction, pooled plasma, 1% w/w probucol) of the same molecule?
A: 0.65

Q: And the “content of C in VLDL, % of the control value” ([2]; VLDL of pooled plasma, 1% probucol)?
A: 25%

Q: And the “drug metabolised to bisphenol or diphenoquinone, aorta” value ([3]; aorta)?
A: ~11%

Q: And the “drug converted into bisphenol or diphenoquinone, plasma” value ([3]; plasma)?
A: ~8%
